The results in this text go back to US11786534B2 (TAIHO PHARMACEUTICAL CO., LTD., priority 2019, dated 2023).

By pIC50 is commonly meant the IC50 on a negative log10 scale, so that one unit is a factor of ten.

Experiment [1] has as its target Ba/F3-EGFR (d746-750/T790M/C797S) (Homo sapiens, UniProt P00533, DEL746-750/T790M/C797S, cells depend on it). Kind of experiment: Growth inhibition of cell line expressing EGFR (d746-750/T790M/C797S). The class given is cell-based, mouse. The settings on record: Test Example 4, Table 13; same procedures as Test Example 2; read-out: BaF3_EGFR (d746-750/T790M/C797S) IC50 value. The source says:
(§1) Test for inhibitory activity against the growth of cell lines expressing wild-type and mutated EGFRs (in vitro)
(§2) (1) Mouse cell line Ba/F3-EGFR (d746-750/T790M/C797S) transfected with and stably expressing EGFR (d746-750/T790M/C797S), mouse cell Ba/F3-EGFR (L858R/T790M/C797S) transfected with and stably expressing EGFR (L858R/T790M/C797S), and mouse cell line Ba/F3-EGFR (WT) transfected with and stably expressing wild-type EGFR were each suspended in RPMI-1640 cell culture medium (RPMI-1640, 10% FBS, 100 unit/ml penicillin, 0.1 mg/ml streptomycin). In the case of the mouse cell line Ba/F3-EGFR (WT), RPMI-1640 cell culture medium containing EGF at a final concentration of 50 ng/ml was used to suspend this cell line. It should be noted that the mouse cell line Ba/F3-EGFR (d746-750/T790M/C797S) transfected with and stably expressing EGFR (d746-750/T790M/C797S), the mouse cell line Ba/F3-EGFR (L858R/T790M/C797S) transfected with and stably expressing EGFR (L858R/T790M/C797S) and the mouse cell line Ba/F3-EGFR (WT) transfected with and stably expressing wild-type EGFR were prepared by using nucleotide sequences encoding the proteins of SEQ ID NOs: 1 and 2 in accordance with Test Example 1 in WO2018/079310, These cell suspensions were seeded in wells of 96-well flat -bottomed plates. The compounds of the present invention were dissolved in DMSO, and serial dilutions of these test compounds were prepared with DMSO (1000-fold of the final concentration). Each test compound solution in DMSO or DMSO alone was diluted with RPMI-1640 cell culture medium for each cell line, and this dilution was added to wells of the cell culture plate such that the final concentration of DMSO was 0.1%, followed by culture at 37° C. for 3 days in a 5% carbon dioxide gas-containing incubator. Before and after addition of each test compound solution in DMSO, the number of cells was counted using the CellTiter-Glo® system (Promega) on the basis of the protocol recommended by Promega.
(§3) In each cell line, the rate of cell growth inhibition was calculated according to the equation shown below in wells to which each test compound was added at different concentrations. Moreover, the inhibition rate at each concentration was plotted for each test compound, and the concentration of each test compound required to give 50% cell survival rate, i.e., IC50 (nM) was determined by curve fitting software XLfit (IDBS).
(§4) Cell survival rate (%)=T/C×100
(§5) T: emission intensity in a well cultured for 3 days after addition of a test compound solution
(§6) C: emission intensity in a well cultured for 3 days after addition of DMSO
(§7) In accordance with the same procedures as shown in Test Example 2, the compounds of the present invention were tested for their inhibitory activity against the growth of the cell hoes expressing wild-type and mutated EGFRs.

The target in experiment [2] is Ba/F3-EGFR (L858R/T790M/C797S) (Homo sapiens, UniProt P00533, T790M/C797S/L858R, cells depend on it). Kind of experiment: Growth inhibition of cell line expressing EGFR (L858R/T790M/C797S). Type of experiment: cell-based, mouse. Conditions: Test Example 4, Table 13; same procedures as Test Example 2; read-out: BaF3_EGFR (L858R/T790M/C797S) IC50 value.
Sequence of Ba/F3-EGFR (L858R/T790M/C797S) (P00533 whole entry T790M/C797S/L858R): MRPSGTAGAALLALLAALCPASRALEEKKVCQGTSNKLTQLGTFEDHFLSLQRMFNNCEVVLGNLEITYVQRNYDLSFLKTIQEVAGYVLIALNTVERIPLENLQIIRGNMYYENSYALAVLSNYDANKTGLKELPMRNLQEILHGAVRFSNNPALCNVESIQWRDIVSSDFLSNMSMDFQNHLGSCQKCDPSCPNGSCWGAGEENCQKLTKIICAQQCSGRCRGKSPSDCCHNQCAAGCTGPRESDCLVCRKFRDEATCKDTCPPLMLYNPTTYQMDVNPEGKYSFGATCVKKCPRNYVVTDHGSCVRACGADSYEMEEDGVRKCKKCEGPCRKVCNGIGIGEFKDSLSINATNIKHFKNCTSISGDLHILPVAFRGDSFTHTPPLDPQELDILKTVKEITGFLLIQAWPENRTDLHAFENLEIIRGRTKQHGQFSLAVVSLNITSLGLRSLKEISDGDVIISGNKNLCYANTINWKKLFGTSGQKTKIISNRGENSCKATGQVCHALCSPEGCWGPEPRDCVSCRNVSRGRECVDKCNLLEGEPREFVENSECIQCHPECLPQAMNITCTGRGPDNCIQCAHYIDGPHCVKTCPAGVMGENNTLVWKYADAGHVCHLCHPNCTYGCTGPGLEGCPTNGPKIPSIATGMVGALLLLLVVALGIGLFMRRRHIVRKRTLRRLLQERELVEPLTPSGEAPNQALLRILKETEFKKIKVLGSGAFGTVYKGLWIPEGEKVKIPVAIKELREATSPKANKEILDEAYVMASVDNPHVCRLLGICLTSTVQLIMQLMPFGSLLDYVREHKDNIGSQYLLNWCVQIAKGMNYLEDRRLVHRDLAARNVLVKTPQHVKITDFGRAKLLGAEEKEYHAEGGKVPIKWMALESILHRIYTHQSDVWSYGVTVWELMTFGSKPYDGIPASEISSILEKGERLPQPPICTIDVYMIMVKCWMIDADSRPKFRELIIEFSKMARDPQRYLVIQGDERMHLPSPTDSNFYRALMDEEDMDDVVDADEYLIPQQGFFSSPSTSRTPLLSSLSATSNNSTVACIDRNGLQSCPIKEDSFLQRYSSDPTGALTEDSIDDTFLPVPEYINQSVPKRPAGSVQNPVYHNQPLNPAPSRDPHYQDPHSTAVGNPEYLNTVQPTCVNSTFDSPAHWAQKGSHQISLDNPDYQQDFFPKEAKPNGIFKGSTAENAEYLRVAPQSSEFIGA
Excerpt: as §1, §2, §3, §4, §5, §6, §7

In the next experiment the target is Ba/F3-EGFR (WT) (Homo sapiens, UniProt P00533). Briefly: Growth inhibition of cell line expressing wild-type EGFR. The class given is cell-based, mouse. The settings on record: Test Example 4, Table 13; same procedures as Test Example 2; read-out: BaF3_EGFR (WT) IC50 value.
Excerpt: as §1, §2, §3, §4, §5, §6, §7

Experiment [3] addresses T1, human EGFR (d746-750/T790M/C797S) (Homo sapiens, UniProt P00533, C797S/DEL746-750/T790M).
T1 construct: made in house; host or cells: Sf9 insect cells, baculovirus
Kind of experiment: Inhibitory activity against EGFR (d746-750/T790M/C797S) kinase. The class given is biochemical. The settings on record: Test Example 1, Table 2; ATP 6 μM, 25° C., 120 minutes. An outline of the steps: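 GST-fused cytoplasmic domain of human EGFR d746-750/T790M/C797S (Sf9-expressed) was incubated with 250 nM biotinylated peptide, 6 μM ATP, 10 mM MgCl2 and 10 mM MnCl2 (2.5% DMSO) for 120 min at 25 °C. After an EDTA stop, phosphotyrosine was detected by Eu-PT66/SureLight APC-SA TR-FRET (665/620 nm, excitation 337 nm). Background wells received EDTA before enzyme.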

For experiment [4], the target named is T2, human EGFR (L858R/T790M/C797S) (Homo sapiens, UniProt P00533, C797S/L858R/T790M).
T2 construct: made in house; host or cells: Sf9 insect cells, baculovirus
T2 sequence (P00533 with tags, fused parts or gaps T790M/C797S/L858R): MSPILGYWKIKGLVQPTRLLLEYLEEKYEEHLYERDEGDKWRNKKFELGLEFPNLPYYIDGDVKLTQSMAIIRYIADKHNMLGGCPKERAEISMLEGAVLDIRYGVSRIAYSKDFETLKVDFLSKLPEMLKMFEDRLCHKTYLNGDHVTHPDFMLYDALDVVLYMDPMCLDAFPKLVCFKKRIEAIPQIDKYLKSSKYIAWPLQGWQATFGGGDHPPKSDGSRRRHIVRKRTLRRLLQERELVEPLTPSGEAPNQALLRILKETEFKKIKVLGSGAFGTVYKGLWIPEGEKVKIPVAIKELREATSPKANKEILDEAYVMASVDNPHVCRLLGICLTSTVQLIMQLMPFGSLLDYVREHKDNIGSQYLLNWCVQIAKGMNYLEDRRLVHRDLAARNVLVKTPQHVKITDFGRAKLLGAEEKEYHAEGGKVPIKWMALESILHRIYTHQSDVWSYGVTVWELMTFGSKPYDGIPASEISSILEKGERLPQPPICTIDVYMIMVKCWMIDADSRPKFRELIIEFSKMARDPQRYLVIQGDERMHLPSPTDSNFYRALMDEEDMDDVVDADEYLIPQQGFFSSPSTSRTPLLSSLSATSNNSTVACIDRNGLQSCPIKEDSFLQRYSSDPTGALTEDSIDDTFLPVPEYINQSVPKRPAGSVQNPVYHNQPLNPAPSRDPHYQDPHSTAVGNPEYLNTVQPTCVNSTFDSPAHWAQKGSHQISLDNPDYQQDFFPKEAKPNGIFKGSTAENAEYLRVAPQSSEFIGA
Briefly: Inhibitory activity against EGFR (L858R/T790M/C797S) kinase. Type of experiment: biochemical. Conditions: Test Example 1, Table 3; ATP 0.5 μM. The method, boiled down: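 GST-tagged cytoplasmic domain of human EGFR L858R/T790M/C797S, expressed in Sf9 insect cells via baculovirus and glutathione-purified. Kinase reaction run at 0.5 μM ATP final; IC50 (nM) determined per compound.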

Experiment [5] addresses T3, human EGFR (d746-750/C797S) (Homo sapiens, UniProt P00533, C797S/DEL746-750).
T3 construct: purchased SignalChem
Kind of experiment: Inhibitory activity against EGFR (d746-750/C797S) kinase. The class given is biochemical. The settings on record: Test Example 1, Table 4; ATP 14 μM, 60 minutes. An outline of the steps:
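Recombinant human EGFR d746-750/C797S in 13.5 mM Tris pH 7.5 with 2 mM DTT and 0.009% Tween-20. Reaction ran 60 min with 14 μM ATP, 20 mM MgCl2 and 12.5 mM MnCl2, stopped by 40 mM EDTA. IC50 in nM.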

The next experiment deals with T4, human EGFR (L858R/C797S) (Homo sapiens, UniProt P00533, C797S/L858R).
T4 construct: purchased SignalChem
Briefly: Inhibitory activity against EGFR (L858R/C797S) kinase. Type of experiment: biochemical. The settings on record: Test Example 1, Table 5; ATP 4 μM, 90 minutes. An outline of the steps: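 Purified recombinant human EGFR (C797S/L858R) kinase, final ATP 4 μM, 90-minute kinase reaction, otherwise per the EGFR (d746-750/C797S) protocol. IC50 (nM) determined from inhibition data.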

Another experiment concerns the target T5, human EGFR (WT) (Homo sapiens, UniProt P00533).
T5 construct: purchased Carna Biosciences Inc., Japan
Briefly: Inhibitory activity against EGFR (WT) kinase. The class given is biochemical. The settings on record: Test Example 1, Table 6; ATP 1.5 μM. An outline of the steps:
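Purified recombinant human wild-type EGFR kinase, with ATP at 1.5 μM final. Compound inhibition of kinase activity read out and fitted to give IC50 (nM).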

pIC50: −log10 of the molar value.

T1 sequence (P00533 with tags, fused parts or gaps DEL746-750/T790M/C797S): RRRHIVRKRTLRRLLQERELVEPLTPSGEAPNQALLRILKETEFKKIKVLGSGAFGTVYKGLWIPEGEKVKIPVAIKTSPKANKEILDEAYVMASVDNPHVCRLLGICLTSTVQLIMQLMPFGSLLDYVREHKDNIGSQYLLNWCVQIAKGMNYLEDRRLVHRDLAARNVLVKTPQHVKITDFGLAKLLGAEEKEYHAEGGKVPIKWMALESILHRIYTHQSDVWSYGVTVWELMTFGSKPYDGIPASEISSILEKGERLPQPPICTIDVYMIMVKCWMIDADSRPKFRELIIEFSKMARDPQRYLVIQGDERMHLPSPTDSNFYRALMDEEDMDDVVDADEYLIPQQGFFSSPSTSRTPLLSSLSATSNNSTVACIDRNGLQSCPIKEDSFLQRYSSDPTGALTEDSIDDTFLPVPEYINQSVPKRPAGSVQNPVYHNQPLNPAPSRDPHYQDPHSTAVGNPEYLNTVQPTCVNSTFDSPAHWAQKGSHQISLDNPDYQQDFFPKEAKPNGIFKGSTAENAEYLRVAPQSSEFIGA
T5 sequence (P00533 25-1210): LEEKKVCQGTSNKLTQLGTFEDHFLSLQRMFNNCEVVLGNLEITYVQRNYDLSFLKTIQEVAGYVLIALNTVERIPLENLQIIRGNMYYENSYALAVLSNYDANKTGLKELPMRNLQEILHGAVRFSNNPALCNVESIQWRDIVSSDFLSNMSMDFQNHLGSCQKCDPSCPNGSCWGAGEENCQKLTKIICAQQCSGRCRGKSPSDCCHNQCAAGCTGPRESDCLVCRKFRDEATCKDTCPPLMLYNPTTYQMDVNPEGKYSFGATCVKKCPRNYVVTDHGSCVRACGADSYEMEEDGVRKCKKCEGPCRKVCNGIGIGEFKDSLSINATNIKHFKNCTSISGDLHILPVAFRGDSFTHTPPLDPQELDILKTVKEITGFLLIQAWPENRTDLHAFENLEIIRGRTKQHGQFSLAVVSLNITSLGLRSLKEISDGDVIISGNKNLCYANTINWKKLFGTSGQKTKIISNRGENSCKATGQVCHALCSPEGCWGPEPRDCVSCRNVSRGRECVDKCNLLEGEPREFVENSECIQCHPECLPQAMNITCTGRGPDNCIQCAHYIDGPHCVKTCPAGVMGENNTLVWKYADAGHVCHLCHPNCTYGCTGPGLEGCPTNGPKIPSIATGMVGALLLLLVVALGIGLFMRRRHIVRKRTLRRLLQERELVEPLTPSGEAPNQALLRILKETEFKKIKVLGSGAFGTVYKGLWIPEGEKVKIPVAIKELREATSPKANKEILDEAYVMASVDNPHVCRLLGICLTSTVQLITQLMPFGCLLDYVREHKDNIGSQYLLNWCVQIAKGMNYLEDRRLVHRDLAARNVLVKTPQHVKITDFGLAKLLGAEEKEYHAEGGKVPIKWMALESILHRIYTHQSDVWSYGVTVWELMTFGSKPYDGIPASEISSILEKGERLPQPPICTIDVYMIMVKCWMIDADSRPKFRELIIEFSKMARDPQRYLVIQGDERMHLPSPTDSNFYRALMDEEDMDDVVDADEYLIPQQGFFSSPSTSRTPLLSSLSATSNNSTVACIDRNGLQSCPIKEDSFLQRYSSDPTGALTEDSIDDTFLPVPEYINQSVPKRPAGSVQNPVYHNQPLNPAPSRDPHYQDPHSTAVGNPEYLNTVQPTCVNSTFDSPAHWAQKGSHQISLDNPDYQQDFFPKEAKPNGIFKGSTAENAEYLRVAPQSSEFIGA
T3 sequence (P00533 with tags, fused parts or gaps DEL746-750/C797S): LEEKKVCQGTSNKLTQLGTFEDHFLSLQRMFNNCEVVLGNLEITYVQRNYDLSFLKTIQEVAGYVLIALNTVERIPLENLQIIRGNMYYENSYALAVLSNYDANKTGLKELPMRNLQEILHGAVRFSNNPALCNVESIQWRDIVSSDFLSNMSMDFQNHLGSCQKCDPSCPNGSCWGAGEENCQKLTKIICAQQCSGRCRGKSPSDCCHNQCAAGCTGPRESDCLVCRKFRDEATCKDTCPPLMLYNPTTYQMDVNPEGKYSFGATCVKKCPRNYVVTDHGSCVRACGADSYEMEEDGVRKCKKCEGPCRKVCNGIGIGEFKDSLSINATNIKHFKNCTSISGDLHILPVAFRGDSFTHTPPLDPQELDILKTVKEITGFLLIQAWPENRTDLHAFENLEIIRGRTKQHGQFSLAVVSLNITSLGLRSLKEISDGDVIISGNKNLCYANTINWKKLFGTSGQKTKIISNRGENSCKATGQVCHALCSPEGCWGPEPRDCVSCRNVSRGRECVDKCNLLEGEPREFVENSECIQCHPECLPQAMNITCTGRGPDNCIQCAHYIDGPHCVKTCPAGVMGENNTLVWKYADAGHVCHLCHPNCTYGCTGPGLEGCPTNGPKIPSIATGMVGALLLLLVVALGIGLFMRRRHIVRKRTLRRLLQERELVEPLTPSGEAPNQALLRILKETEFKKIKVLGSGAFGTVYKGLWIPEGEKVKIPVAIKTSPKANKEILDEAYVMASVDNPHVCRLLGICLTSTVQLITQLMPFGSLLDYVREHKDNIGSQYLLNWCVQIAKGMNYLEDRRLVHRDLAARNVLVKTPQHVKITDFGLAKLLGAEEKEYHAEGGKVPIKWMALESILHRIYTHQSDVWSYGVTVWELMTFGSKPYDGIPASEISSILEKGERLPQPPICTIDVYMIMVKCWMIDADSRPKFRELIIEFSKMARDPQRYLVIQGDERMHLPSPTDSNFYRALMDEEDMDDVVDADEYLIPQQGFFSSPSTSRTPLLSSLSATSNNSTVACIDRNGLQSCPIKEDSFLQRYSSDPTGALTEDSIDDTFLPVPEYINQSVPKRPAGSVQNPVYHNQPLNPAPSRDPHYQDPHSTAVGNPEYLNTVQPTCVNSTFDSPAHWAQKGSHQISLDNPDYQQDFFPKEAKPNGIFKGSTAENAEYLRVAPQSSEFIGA

`C#Cc1c(-c2cnc3ccccc3c2)c2c(N)ncnc2n1C12CCC(NC(=O)c3cnco3)(CC1)C2` [Example 47]: the results for the GI50 (in experiment [1]; in experiment [2]; at Ba/F3-EGFR (WT)) were 33 nM, 382 nM and 2060 nM, respectively.

On to `C#Cc1c(-c2cnc3ccccc3c2)c2c(N)ncnc2n1C12CCC(NC(=O)c3cncc(C#N)c3)(CC1)C2` [Example 34, N-(4-(4-Amino-6-ethynyl-5-(quinolin-3-yl)-7H-pyrrolo[2,3-d]pyrimidin-7-yl)-bicyclo-[2.2.1]heptan-1-yl)-5-cyanonicotinamide], for which the negative-log IC50 (pIC50) in experiment [3] was over 9.52; in experiment [4], over 9.52; in experiment [5] it was 9.34; against human EGFR (L858R/C797S) it was 9.35; at human EGFR (WT), 9.08.
